Data from PMC7927096, “Dipeptides of S-Substituted Dehydrocysteine as Artzyme Building Blocks: Synthesis, Complexing Abilities and Antiproliferative Properties” (International Journal of Molecular Sciences, 2021).
Structures can show the parent of a compound that is named as a salt.

What was measured:
[1] = system: ten diverse human cancer cells lines and murine non-tumorigenic cell line (Balb/3T3); test: Antiproliferative screen, whole cell line panel (statements in words); assay type: cell-based; details: SRB, across cell lines
Source text: (§1) Ten different human cancer cell lines (including drug-resistant sublines) and one non-tumorigenic murine fibroblasts cell line were used to determine antiproliferative activity of the tested compounds. The MDA-MB-231 (breast adenocarcinoma), UM-UC-3 (urinary bladder transitional cell carcinoma), LoVo (colorectal adenocarcinoma), LoVo^Dx (colorectal adenocarcinoma, doxorubicin-resistant) and Balb/3T3 (non-tumorigenic murine fibroblasts) were purchased from the American Type Culture Collection (ATCC; Rockville, USA). The MCF-7 (breast adenocarcinoma) and A549 (lung carcinoma) were purchased from European Collection of Authenticated Cell Cultures (ECACC; Porton Down, UK). The UM-UC-3^CDDP, UM-UC-3^GEM, UM-UC-3^VBL, and UM-UC-3^CDDP/GEM cell lines were established at Hirszfeld Institute of Immunology and Experimental Therapy of the Polish Academy of Sciences (HIIET, PAS, Wroclaw, Poland) by the continuous exposure to the increasing concentrations of corresponding cytostatics.
(§2) The Balb/3T3 and UM-UC-3 were cultured in Dulbecco’s Modified Eagle Medium (DMEM; Life Technologies, UK) supplemented with 10% (v/v) fetal bovine serum (FBS; GE Healthcare HyClone, Logan, USA) and 2 mM L-glutamine (Sigma-Aldrich, Poznań, Poland). The UM-UC-3^CDDP, UM-UC-3^GEM, UM-UC-^3VBL, and UM-UC-3^CDDP/GEM culture media were additionally supplemented with appropriate cytostatics: 2.5 µg/mL cisplatin (Accord, Warsaw, Poland) for UM-UC-3^CDDP, 500 nM gemcitabine (Sigma-Aldrich, Poznań, Poland) for UM-UC-3^GEM, 5 nM vinblastine (Sigma-Aldrich, Poznań, Poland) for UM-UC-3VBL, 2.5 µg/mL cisplatin and 500 nM gemcitabine for UM-UC-3^CDDP/GEM. The LoVo cell line was cultured in F-12K Nutrient Mixture (F-12K; Corning, Corning, USA), supplemented with 10% (v/v) FBS. LoVo^Dx culture medium was additionally supplemented with doxorubicin 100 ng/mL (Accord, Warsaw, Poland). The MCF-7 cell line was cultured in Eagle’s medium (HIIET, PAS, Wroclaw, Poland), supplemented with 10% (v/v) FBS (Sigma-Aldrich, Poznań, Poland), 2 mM L-glutamine, MEM non-essential amino acid solution 1% (v/v) (Sigma-Aldrich, Poznań, Poland), insulin 8 µg/mL (Sigma-Aldrich, Poznań, Poland). The MDA-MB-231 cell line was cultured in RPMI 1640 (HIIET, PAS, Wroclaw, Poland), supplemented with 10% (v/v) FBS (Sigma-Aldrich, Poznań, Poland) and 2 mM L-glutamine. The A 549 cell line was cultured in OptiMEM (HIIET, PAS, Wroclaw, Poland), supplemented with 5% (v/v) FBS (GE Healthcare HyClone, Logan, USA) and 2 mM L-glutamine. All culture media were supplemented with antibiotics—100 μg/mL streptomycin (Polfa Tarchomin, Warsaw, Poland) and 100 U/mL penicillin (Sigma-Aldrich, Poznań, Poland).
(§3) All cell lines were cultured in a humidified atmosphere at 37 °C with 5% (v/v) CO2 and passaged twice a week using EDTA-Trypsin solution (pH 8; HIIET, Wroclaw, Poland) as a detachment agent.
(§4) All compounds, for antiproliferative activity assessment, were stored at […] as 50 mM solutions in dimethyl sulfoxide (DMSO; Avantor Performance Materials, Gliwice, Poland).
(§5) The cells were seeded on 384-well plates (Greiner Bio One, Kremsmünster, Austria) at 1 × 10^3 cells/well density for A 549, UM-UC-3, UM-UC-3^CDDP, UM-UC-3^GEM, UM-UC-3^CVBL and UM-UC-3^CDDP/GEM cell lines. Other cell lines were seeded at 2 × 10^3 cells/well. After overnight incubation, compounds were applied at eight concentrations (ranging from 100 µM to 0.03 µM). After 72 h incubation, the sulforhodamine B (SRB) assay based on Skehan et al. was carried out with slight modifications. In brief, 50 µL of the medium was replaced with 30 µL/well of 25% (w/v) trichloroacetic acid (Avantor Performance Materials, Gliwice, Poland). After 1 h incubation at room temperature, plates were washed three times with tap water, and 20 µL of 0.1% (w/v) solution of sulforhodamine B (Sigma-Aldrich, Poznan, Poland) in 1% (v/v) acetic acid (Avantor Performance Materials, Gliwice, Poland) was added to each well. […]

[2] = system: Balb/3T3 (non-tumorigenic murine fibroblasts); test: Antiproliferative activity, sulforhodamine B assay; assay type: cell-based; details: Mus musculus, BALB/3T3; SRB, 72 h incubation; non-tumorigenic line; read-out: IC50 ± SD, Balb/3T3
Source text: as §1, §2, §3, §4, §5

A549 (lung carcinoma) = test: Antiproliferative activity, sulforhodamine B assay; assay type: cell-based, human; details: Homo sapiens, A549; SRB, 72 h incubation; read-out: IC50 ± SD, A-549
Source text: as §1, §2, §3, §4, §5

[3] = system: LoVo^DX (colorectal adenocarcinoma, doxorubicin-resistant); test: Antiproliferative activity, sulforhodamine B assay; assay type: cell-based, human; details: Homo sapiens, LoVo/DX, SRB, 72 h incubation, read-out: IC50 ± SD, LoVo^DX
Source text: as §1, §2, §3, §4, §5

[4] = system: MCF-7 (breast adenocarcinoma); test: Antiproliferative activity, sulforhodamine B assay; assay type: cell-based, human; details: Homo sapiens, MCF7; SRB, 72 h incubation; read-out: IC50 ± SD, MCF-7
Source text: as §1, §2, §3, §4, §5

[5] = system: MDA-MB-231 (breast adenocarcinoma); test: Antiproliferative activity, sulforhodamine B assay; assay type: cell-based, human; details: Homo sapiens, MDA-MB-231; SRB, 72 h incubation; read-out: IC50 ± SD, MDA-MB-231
Source text: as §1, §2, §3, §4, §5

[6] = system: LoVo (colorectal adenocarcinoma); test: Antiproliferative activity, sulforhodamine B assay; assay type: cell-based, human; details: Homo sapiens, LoVo; SRB, 72 h incubation; read-out: IC50 ± SD, LoVo
Source text: as §1, §2, §3, §4, §5

[7] = Potentiometric titration, protonation constants of free ligands; assay type: physicochemical; details: 298 K, ionic strength 0.1 M KCl; for protonation constant logβ, H2L / protonation constant logβ, H3L / protonation constant logβ, HL: ± SD
Description: (§6) The pH-metric measurements were performed on Metrohm 905 Titrando system equipped with combined Biotrop® electrode. The titrant was 0.1 M KOH (Merck, Germany) freed of CO2 by bubbling Ar gas for 3 h. The electrode calibration was performed before each titration. The volume of all the samples was 1.5 mL and the measurements were carried out at a range of pH of 2.5–11.0 in thermostated vessels at 298 K in an inert atmosphere of Ar gas. The ligands 9a and 10a were diluted in hydrochloric acid (pH = 2.5), prepared from 37% HCl (Sigma-Aldrich, Poland). Their concentration was set up at a range of 1.0–2.0 × 10^−3 M and the ionic strength of 0.1 M was achieved by the addition of KCl (Sigma-Aldrich, Poland). The ligand-metal ion systems were prepared by addition of CuCl2 (Sigma-Aldrich, Poland). stock solutions to reach final ligand to metal ratio (nL: nCu^2+) being 2:1 or 1:1.
(§7) The protonation (βi = [HiL]/[H^+]^i[L]), stability constants (βpqr = [MpHqLr]/[M]^p[H]^q[L]^r), and stoichiometry of complexes were calculated using the HYPERQUAD program. The distribution species plots were made by HySS program. The standard deviations were computed for all the constants and indicated the presence of only random errors, which was a good evidence of the presence of each species in the equilibrium.

[8] = Potentiometric titration and spectroscopy, stability constants of Cu(II)-complexes; assay type: physicochemical; details: for Cu(II) complexing ability (in words): 10a versus 9a below pH 5, 9a versus Gly(Z)Phe, nL:nCu(II) = 1:1
Description: as §6, §7
The UV-Vis absorption measurements were recorded on Varian Carry 50 Bio spectrophotometer. All spectra were collected in a quartz cuvette with 1 cm path length at 298 K. The spectral range was 300–800 nm with resolution 0.1 nm. The molar extinction coefficients (ε [M^−1cm^−1]) were calculated for each spectrum at a wavelength of maximum absorption.
The Circular Dichroism spectra (CD) and Magnetic Circular Dichroism (MCD) were measured on a JASCO J 600 spectropolarimeter in a range of 230–800 nm with 0.1 nm resolution. The optical length of the quartz cuvettes was 10 mm. The molar circular dichroism coefficient (Δε [M^−1cm^−1]) was calculated for each spectrum.
The Electron Paramagnetic Resonance (EPR) spectra were recorded on a Brucker ESP 300E spectrometer at X-band frequency (9.5 GHz) at 77 K obtained by the use of liquid nitrogen. The procedure of sample preparation for spectroscopic measurements was the same as in potentiometric titration. The EPR samples were protected by adding 30% of ethylene glycol (Sigma-Aldrich, Poland). The pH of the samples was determined by adding a small quantity of a concentrated solution of KOH (Merck, Germany) to achieve the desired value and controlled by Mettler Toledo pH-meter equipped with combined electrode InLab®Micro. The simulation of the EPR spectrum was performed by the Hyperfine Spectrum program written by W.R. Hagen.

[9] = 298 K, ionic strength 0.1 M KCl
[10] = 298 K, ionic strength 0.1 M KCl, ± SD

Question: For `COC(=O)/C(=C/Sc1nc[nH]n1)NC(=O)CNC(=O)OC(C)(C)C` [Compound 6a, Boc-Gly-ΔCys(S-triazole)-OMe], which “antiproliferative activity (in words)” value [1] is on record?
Answer: markedly lower, if any, activity

Question: For `COC(=O)/C(=C/Sc1nc2c(N)ncnc2[nH]1)NC(=O)CNC(=O)OC(C)(C)C` [Compound 6e, Boc-Gly-ΔCys(S-adenine)-OMe], which “antiproliferative activity (in words)” value [1] is on record?
Answer: markedly lower, if any, activity

Question: Which IC50 [2] does the source give for `COC(=O)/C(=C/Sc1nc2c(N)ncnc2[nH]1)NC(=O)[C@H](Cc1ccccc1)NC(=O)OC(C)(C)C` [Compound 7e, Boc-Phe-ΔCys(S-adenine)-OMe] here?
Answer: > 100 µM

Question: What about the IC50 (A549 (lung carcinoma)) of the same molecule?
Answer: > 100 µM

Question: And the IC50 [3]?
Answer: > 100 µM

Question: And the IC50 [4]?
Answer: 101 ± 11.3 µM

Question: And the IC50 [5]?
Answer: 74.5 ± 7.7 µM

Question: And the IC50 [6]?
Answer: 81.7 ± 12.4 µM

Question: And the “antiproliferative activity (in words)” value [1]?
Answer: markedly lower, if any, activity

Question: Which “protonation constant logK, H3L” value [7] does the source give for `COC(=O)/C(=C/Sc1nc[nH]n1)NC(=O)CN` [Compound 9a, HCl Gly-ΔCys(S-triazole)-OMe] here?
Answer: 7.26

Question: What about the “protonation constant logK, HL” value [7] of the same molecule?
Answer: 10.09

Question: What about the “protonation constant logβ, H2L” value [7] of the same molecule?
Answer: 18.05 ± 0.01

Question: And the “protonation constant logβ, H3L” value [7]?
Answer: 25.31 ± 0.01

Question: And the “protonation constant logβ, HL” value [7]?
Answer: 10.09 ± 0.01

Question: And the “Cu(II) complexing ability (in words)” value [8]?
Answer: significantly more effective in Cu(II) coordination

Question: And the “logK, Cu2L2H” value [8, 9]?
Answer: 14.45

Question: And the “logK, CuL” value [8, 9]?
Answer: 10.42

Question: What about the “logK, CuL2” value [8, 9] of the same molecule?
Answer: 11.35

Question: What about the “logK, CuL2H” value [8, 9] of the same molecule?
Answer: 8.73

Question: What about the “logK, CuL2H2” value [8, 9] of the same molecule?
Answer: 7.67

Question: And the “logK, CuLH2” value [8, 9]?
Answer: 9.34

Question: What about the “stability constant logβ, Cu2L2H” value [8, 10] of the same molecule?
Answer: 36.61 ± 0.03

Question: And the “stability constant logβ, Cu2L2H-1” value [8, 10]?
Answer: 22.16 ± 0.06

Question: What about the “stability constant logβ, CuL” value [8, 10] of the same molecule?
Answer: 14.18 ± 0.01

Question: What about the “stability constant logβ, CuL2” value [8, 10] of the same molecule?
Answer: 20.06 ± 0.04

Question: What about the “stability constant logβ, CuL2H” value [8, 10] of the same molecule?
Answer: 28.79 ± 0.04

Question: And the “stability constant logβ, CuL2H2” value [8, 10]?
Answer: 36.46 ± 0.04

Question: And the “stability constant logβ, CuL2H-1” value [8, 10]?
Answer: 8.71 ± 0.07

Question: And the “stability constant logβ, CuLH2” value [8, 10]?
Answer: 23.52 ± 0.03

Question: What about the “stability constant logβ, CuLH-1” value [8, 10] of the same molecule?
Answer: 3.76 ± 0.04

Question: And the “corrected stability constant (logβ = logβCuLH2 − logβH2L)” value ([8]; CuH2L complex, equimolar conditions)?
Answer: 5.47

Question: And the “logβ* = logβCuL − logKHL” value ([8]; CuL species, independent of logKtriazole)?
Answer: 4.09

Question: Which IC50 (A549 (lung carcinoma)) does the source give for `COC(=O)/C(=C/Sc1nc2ccccc2s1)NC(=O)CN` [Compound 9d, HCl Gly-ΔCys(S-benzothiazole)-OMe] here?
Answer: 33.4 ± 6.4 µM

Question: And the IC50 [4]?
Answer: > 100 µM

Question: What about the IC50 [5] of the same molecule?
Answer: 56 ± 7.1 µM

Question: What does the source list for `COC(=O)/C(=C/Sc1nc[nH]n1)NC(=O)[C@@H](N)Cc1ccccc1` [Compound 10a, HCl Phe-ΔCys(S-triazole)-OMe]?
Answer: protonation constant logK, H3L [7]: 6.85; protonation constant logK, HL [7]: 10.42; protonation constant logβ, H2L [7]: 18.53 ± 0.02; protonation constant logβ, H3L [7]: 25.38 ± 0.02; protonation constant logβ, HL [7]: 10.42 ± 0.01; Cu(II) complexing ability (in words) [8]: significantly more effective binder of Cu(II); logK, Cu2L2H [8, 9]: 14.59; logK, CuL [8, 9]: 10.61; logK, CuL2H [8, 9]: 8.45; logK, CuLH2 [8, 9]: 8.83; stability constant logβ, Cu2L2H [8, 10]: 37.54 ± 0.06; stability constant logβ, Cu2L2H-1 [8, 10]: 22.95 ± 0.06; stability constant logβ, CuL [8, 10]: 15.00 ± 0.01; stability constant logβ, CuL2 [8, 10]: 20.37 ± 0.05; stability constant logβ, CuL2H [8, 10]: 28.82 ± 0.11; stability constant logβ, CuLH2 [8, 10]: 23.83 ± 0.03; stability constant logβ, CuLH-1 [8, 10]: 4.39 ± 0.03
